These results are taken from patent US20130281504A1, “Reduction of Microglia-Mediated Neurotoxicity by KCa3.1 Inhibition” (THE REGENTS OF THE UNIVERSITY OF CALIFORNIA, priority 2010, published 2013).

Molecules are shown by their SMILES.

In assay [1] the test system is hippocampal slices. Put plainly: AβO-treated organotypic hippocampal slice cultures. It counts as cell-based, mouse. The method, then: Hippocampal slice cultures (400 μm-thick) were prepared from 7-day-old C57BL/6J mice as previously described (25) and cultured for 10 days in vitro before use. Neuronal damage in the slices was monitored by PI uptake following Bernardino et al (27). PI itself is not toxic to neurons (27). […] After 24 hrs, the slices were observed under a Nikon Eclipse E600 microscope and the red (630 nm) fluorescence emitted by PI taken up by damaged cells was photographed by a digital camera (SPOT RTke, SPOT Diagnostics, Sterling Heights, Mich.) with fixed exposure time.
For immunofluorescent staining of neurons, cultures were fixed in 4% paraformaldehyde and stained with anti-PSD95 (1:200, Cell Signaling), anti-MAP2 (1:500, Chemicon) and anti-acetylated α-tubulin (1:250, Zymed). For immunofluorescent staining of microglia, cultures or hippocampal slices were fixed in 4% paraformaldehyde and stained with anti-IBA1 (1:500, Wako Chemicals USA), anti-SRA (E-20, 1:200, Santa Cruz Biotechnology), and anti-CD11b (1:200, AbD Serotec USA, Raleigh, N.C.). The fixed cells or hippocampal slices were incubated with antibodies for overnight at 4° C. followed by secondary Alexa488 conjugated anti-mouse or Alexa568 conjugated anti-rabbit antibody (1:700, Molecular probes). Immunostained images were observed under a Nikon Eclipse E600 microscope and photographed by a digital camera (SPOT RTke, SPOT Diagnostics, Sterling Heights, Mich.).
To obtain lysates, cells or tissues were washed with ice-cold PBS and incubated with a buffer containing 50 mmol/L Tris-HCl (pH 7.4), 150 mmol/L NaCl, 2% SDS, proteinase inhibitor cocktail (Sigma), and phosphatase inhibitor cocktail (Sigma). Lysates were briefly sonncated and cleared by centrifugation at 50,000 rpm for 10 min. Equivalent amounts of protein were analyzed by Tris/HCL gel electrophoresis. Proteins were transferred to polyvinylidene difluoride membranes and probed with antibodies. Visualization was performed using enhanced chemiluminescence (ECL, Amersham Pharmacia, Piscataway, N.J.).
Conditioned medium collected from microglia cultures (1×10^5/0.75 cm^2) and hippocampal slices treated with Aβ for 24 hrs were analyzed by the Nitric Oxide Quantization Kit according to the protocol of the manufacturer (Active Motif, Carlsbad, Calif.). Data were normalized to the amount of total protein.

The test system of assay [2] is hippocampal neurons. Put plainly: Indirect neurotoxicity of conditioned medium from AβO-treated microglia on hippocampal neurons. The assay is classed as cell-based, mouse. To be noted: 25% CM, 24 hrs.
Procedure: Cultures were washed extensively and changed to the Neurobasal medium with B27 supplement (NB/B27, Invitrogen) without serum and cultured for another 24 hrs. The NB/B27-based microglia CMs were collected, briefly centrifuged, and used immediately or frozen for future uses.
Hippocampal neuronal cultures were prepared from newborn wild type C57BL/6J mice according to the method of Xiang et al (26). Neurons were cultured in NB/B27 at a density of 2.5×10^5 cells/well in 12-well plates or 8×10^5 cells/well in 6-well plates for at least 14 days before they were treated with microglia CM.
Hippocampal neurons were prepared as described above and were plated onto 96-well plate at a density of 6×10^4 cells/well and cultured for 14 days. CM from microglia cultures was added onto neurons with indicated dilutions, and cultures were incubated for 24 hrs.
For immunofluorescent staining of neurons, cultures were fixed in 4% paraformaldehyde and stained with anti-PSD95 (1:200, Cell Signaling), anti-MAP2 (1:500, Chemicon) and anti-acetylated α-tubulin (1:250, Zymed). […] Immunostained images were observed under a Nikon Eclipse E600 microscope and photographed by a digital camera (SPOT RTke, SPOT Diagnostics, Sterling Heights, Mich.).
For quantification of the PSD95-immunoreactive puncta along the dendrites, photomicrographs of PSD95 immunostained cultures were randomly taken from each culture condition. The images were transformed to 8 bit gray scale and analyzed with the Image J program. The number of puncta in each photomicrograph was counted and normalized by dendritic length. The photography and analysis were conducted in an investigator-blinded manner

Take `Clc1ccccc1C(c1ccccc1)(c1ccccc1)n1cccn1` [TRAM-34, 1-[(2-chlorophenyl)diphenylmethyl]-1H-pyrazole]: in assay [1] (20 nM AβO 24 hrs, co-treatment, FIG. 7A, 7C), the “AβO-induced microglia activation in hippocampal slices” value was “substantially ameliorated”. The “AβO-induced NO production from hippocampal slices” value in assay [1] (20 μM doxycycline, 1 μM TRAM-34, FIG. 7B) is reported as “prevented”. The “AβO-enhanced PI uptake (neuronal damage) in hippocampal slices” value in assay [1] (20 μM doxycycline, 1 μM TRAM-34, FIG. 7C) is listed as “ameliorated”. In assay [1] (co-treatment, FIG. 7D), the “AβO-induced reduction of dendritic and post-synaptic proteins in hippocampal slices” value is on record as “substantially ameliorated”. Besides, the “NO production from hippocampal slices, compound alone” value in assay [1] (without AβO) is “did not affect NO production”. Further, in assay [2], the “dendritic morphology of neurons after CM from AβO-treated microglia co-incubated with inhibitor” value is “did not alter the dendritic morphology”. In addition, in assay [2] (Western blot), the “levels of Ac-TN, MAP2, PSD95, and GRIP1 after CM from AβO-treated microglia co-incubated with inhibitor” value was “did not cause significant decreases”. Also, the “AβO-CM-induced reduction of PSD95-immunoreactive puncta” value in assay [2] (microglia co-treated with 20 μM doxycycline or 1 μM TRAM-34, FIG. 6D) is “prevented”.
